Reference: patent US12258327B2, “5-membered heteroaryl-containing aminopyridine compounds as EGFR inhibitors” (YUHAN CORPORATION, priority 2021, dated 2025)
Where two headings read alike, the source gives them in different places.

How the values were obtained:
EGFR del19/C797S = EGFR del19/C797S (Homo sapiens, UniProt P00533, C797S/DEL746-750); test: Biochemical EGFR kinase assay (Lance Ultra TR-FRET), double mutant del19/C797S
Summary of the method: (§1)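 Kinase activity is measured by TR-FRET phosphopeptide detection. Compounds span 0.003 μM to 10 μM; the 1 h reaction at room temperature is quenched with EDTA, then labelled antibody (2 nM) is incubated 60 min before reading.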

EGFR wildtype (WT) = EGFR wildtype (WT) (Homo sapiens, UniProt P00533); test: Biochemical EGFR kinase assay (Lance Ultra TR-FRET), wildtype
Summary of the method: as §1

EGFR del19/T790M/C797S = EGFR del19/T790M/C797S (Homo sapiens, UniProt P00533, C797S/DEL746-750/T790M); test: Biochemical EGFR kinase assay (Lance Ultra TR-FRET), triple mutant del19/T790M/C797S
Summary of the method: as §1

EGFR L858R/C797S = EGFR L858R/C797S (Homo sapiens, UniProt P00533, C797S/L858R); test: Biochemical EGFR kinase assay (Lance Ultra TR-FRET), double mutant L858R/C797S
Summary of the method: as §1

EGFR L858R/T790M/C797S = EGFR L858R/T790M/C797S (Homo sapiens, UniProt P00533, C797S/L858R/T790M); test: Biochemical EGFR kinase assay (Lance Ultra TR-FRET), triple mutant L858R/T790M/C797S
Summary of the method: as §1

[1] = Km ATP, read-out: IC50 del19/C797S (nM) Km ATP
[2] = Km ATP, read-out: IC50 WT (nM) Km ATP
[3] = Km ATP, read-out: IC50 del19/T790M/C797S (nM) Km ATP
[4] = Km ATP, read-out: IC50 L858R/C797S (nM) Km ATP
[5] = Km ATP, read-out: IC50 L858R/T790M/C797S (nM) Km ATP
[6] = IC50 del19/C797S (nM) 100 μM ATP, 100 μM ATP
[7] = IC50 WT (nM) 100 μM ATP, 100 μM ATP
[8] = IC50 del19/T790M/C797S (nM) 100 μM ATP, 100 μM ATP
[9] = IC50 L858R/C797S (nM) 100 μM ATP, 100 μM ATP
[10] = IC50 L858R/T790M/C797S (nM) 100 μM ATP, 100 μM ATP
[11] = Km ATP, read-out: IC50 del19/C797S, Km ATP
[12] = Km ATP, read-out: IC50 WT, Km ATP
[13] = Km ATP, read-out: IC50 del19/T790M/C797S, Km ATP
[14] = Km ATP, read-out: IC50 L858R/C797S, Km ATP
[15] = Km ATP, read-out: IC50 L858R/T790M/C797S, Km ATP

Chain of EGFR wildtype (WT) (P00533 25-1210): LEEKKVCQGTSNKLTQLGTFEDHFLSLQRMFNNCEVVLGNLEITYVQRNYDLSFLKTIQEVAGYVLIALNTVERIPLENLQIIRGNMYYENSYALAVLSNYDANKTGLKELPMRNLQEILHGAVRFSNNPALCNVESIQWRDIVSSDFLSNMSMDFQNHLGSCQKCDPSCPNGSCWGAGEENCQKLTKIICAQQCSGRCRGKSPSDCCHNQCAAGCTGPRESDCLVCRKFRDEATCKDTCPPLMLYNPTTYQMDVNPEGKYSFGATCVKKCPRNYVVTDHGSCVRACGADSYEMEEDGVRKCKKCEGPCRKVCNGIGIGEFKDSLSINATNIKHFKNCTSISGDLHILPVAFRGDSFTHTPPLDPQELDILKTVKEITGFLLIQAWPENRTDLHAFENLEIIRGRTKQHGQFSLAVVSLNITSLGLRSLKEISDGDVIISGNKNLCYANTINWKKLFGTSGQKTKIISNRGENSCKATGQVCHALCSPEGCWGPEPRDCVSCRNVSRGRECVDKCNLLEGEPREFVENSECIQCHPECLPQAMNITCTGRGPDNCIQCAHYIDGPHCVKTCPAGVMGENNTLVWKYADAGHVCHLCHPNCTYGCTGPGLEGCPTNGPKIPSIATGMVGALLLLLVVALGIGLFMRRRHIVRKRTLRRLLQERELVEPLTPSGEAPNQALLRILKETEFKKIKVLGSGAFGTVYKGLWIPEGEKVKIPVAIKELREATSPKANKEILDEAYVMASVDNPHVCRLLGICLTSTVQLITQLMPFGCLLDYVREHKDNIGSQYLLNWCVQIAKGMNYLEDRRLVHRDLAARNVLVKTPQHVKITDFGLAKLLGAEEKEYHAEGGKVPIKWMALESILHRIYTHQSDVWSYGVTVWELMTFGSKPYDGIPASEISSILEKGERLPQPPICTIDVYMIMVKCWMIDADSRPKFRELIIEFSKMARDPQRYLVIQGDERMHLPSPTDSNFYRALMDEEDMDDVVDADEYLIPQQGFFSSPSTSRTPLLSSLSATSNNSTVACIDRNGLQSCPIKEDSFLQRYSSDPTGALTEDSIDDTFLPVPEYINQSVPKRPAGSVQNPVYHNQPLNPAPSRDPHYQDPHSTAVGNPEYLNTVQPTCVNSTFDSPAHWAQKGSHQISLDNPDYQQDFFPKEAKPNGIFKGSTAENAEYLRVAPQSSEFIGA
Chain of EGFR del19/C797S (P00533 with tags, fused parts or gaps DEL746-750/C797S): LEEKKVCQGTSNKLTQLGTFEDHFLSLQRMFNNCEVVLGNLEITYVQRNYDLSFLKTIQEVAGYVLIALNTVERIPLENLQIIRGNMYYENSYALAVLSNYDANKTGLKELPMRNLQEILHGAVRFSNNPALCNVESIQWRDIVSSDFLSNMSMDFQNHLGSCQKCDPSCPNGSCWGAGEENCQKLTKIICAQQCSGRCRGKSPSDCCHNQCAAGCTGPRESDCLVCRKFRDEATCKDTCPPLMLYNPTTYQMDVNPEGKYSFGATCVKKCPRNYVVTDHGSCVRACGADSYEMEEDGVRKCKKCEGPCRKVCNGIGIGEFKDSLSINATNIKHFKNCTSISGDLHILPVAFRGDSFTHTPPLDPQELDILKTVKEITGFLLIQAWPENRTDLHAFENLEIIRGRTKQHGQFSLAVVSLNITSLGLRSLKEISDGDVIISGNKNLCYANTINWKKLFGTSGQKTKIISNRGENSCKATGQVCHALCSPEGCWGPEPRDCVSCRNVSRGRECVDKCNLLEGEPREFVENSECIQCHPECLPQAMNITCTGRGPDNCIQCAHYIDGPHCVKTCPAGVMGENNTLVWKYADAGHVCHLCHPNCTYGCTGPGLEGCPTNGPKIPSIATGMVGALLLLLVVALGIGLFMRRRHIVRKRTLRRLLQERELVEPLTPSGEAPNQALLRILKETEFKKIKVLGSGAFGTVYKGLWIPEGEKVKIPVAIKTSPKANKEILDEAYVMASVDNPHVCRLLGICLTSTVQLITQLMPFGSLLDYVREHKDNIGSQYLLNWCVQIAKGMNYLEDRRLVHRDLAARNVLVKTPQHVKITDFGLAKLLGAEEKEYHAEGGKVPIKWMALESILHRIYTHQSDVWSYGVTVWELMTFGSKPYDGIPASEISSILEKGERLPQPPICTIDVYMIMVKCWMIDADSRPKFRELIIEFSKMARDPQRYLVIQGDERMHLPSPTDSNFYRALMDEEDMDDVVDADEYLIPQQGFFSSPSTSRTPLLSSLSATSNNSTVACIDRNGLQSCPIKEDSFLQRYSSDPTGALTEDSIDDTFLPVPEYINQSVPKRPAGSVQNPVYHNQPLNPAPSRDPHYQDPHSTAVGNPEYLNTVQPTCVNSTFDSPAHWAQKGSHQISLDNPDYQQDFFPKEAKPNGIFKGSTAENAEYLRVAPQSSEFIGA
Chain of EGFR L858R/T790M/C797S (P00533 25-1210 T790M/C797S/L858R): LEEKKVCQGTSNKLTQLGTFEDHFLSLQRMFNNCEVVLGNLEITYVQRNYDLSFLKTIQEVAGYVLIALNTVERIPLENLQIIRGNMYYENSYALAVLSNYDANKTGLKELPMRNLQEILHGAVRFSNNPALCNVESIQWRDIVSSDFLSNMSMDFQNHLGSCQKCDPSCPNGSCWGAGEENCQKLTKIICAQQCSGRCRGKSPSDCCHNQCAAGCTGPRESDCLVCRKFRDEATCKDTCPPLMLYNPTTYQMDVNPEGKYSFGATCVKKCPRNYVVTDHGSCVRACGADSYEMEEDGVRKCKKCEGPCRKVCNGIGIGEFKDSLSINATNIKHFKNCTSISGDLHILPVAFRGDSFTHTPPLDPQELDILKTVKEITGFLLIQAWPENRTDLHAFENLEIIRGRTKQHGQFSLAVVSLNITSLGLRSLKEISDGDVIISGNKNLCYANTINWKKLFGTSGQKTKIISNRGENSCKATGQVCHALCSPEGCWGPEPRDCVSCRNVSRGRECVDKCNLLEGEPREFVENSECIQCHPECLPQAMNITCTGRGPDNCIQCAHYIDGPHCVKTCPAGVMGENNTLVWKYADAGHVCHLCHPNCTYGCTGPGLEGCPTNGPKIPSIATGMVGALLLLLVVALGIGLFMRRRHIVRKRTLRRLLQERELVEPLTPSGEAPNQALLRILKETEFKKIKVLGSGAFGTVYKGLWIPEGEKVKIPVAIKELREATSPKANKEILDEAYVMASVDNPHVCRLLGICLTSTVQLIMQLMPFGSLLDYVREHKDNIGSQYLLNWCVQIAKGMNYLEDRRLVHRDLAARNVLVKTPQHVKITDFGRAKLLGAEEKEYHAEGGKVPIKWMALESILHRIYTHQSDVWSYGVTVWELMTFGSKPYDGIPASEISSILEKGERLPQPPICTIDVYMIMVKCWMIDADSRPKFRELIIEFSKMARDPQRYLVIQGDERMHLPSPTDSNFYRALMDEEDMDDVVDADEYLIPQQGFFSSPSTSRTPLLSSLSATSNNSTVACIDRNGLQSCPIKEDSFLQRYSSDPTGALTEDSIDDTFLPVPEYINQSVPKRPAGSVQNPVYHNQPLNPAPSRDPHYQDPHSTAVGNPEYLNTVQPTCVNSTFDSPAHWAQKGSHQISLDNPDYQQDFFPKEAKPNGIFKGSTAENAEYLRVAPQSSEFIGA
Chain of EGFR del19/T790M/C797S (P00533 with tags, fused parts or gaps DEL746-750/T790M/C797S): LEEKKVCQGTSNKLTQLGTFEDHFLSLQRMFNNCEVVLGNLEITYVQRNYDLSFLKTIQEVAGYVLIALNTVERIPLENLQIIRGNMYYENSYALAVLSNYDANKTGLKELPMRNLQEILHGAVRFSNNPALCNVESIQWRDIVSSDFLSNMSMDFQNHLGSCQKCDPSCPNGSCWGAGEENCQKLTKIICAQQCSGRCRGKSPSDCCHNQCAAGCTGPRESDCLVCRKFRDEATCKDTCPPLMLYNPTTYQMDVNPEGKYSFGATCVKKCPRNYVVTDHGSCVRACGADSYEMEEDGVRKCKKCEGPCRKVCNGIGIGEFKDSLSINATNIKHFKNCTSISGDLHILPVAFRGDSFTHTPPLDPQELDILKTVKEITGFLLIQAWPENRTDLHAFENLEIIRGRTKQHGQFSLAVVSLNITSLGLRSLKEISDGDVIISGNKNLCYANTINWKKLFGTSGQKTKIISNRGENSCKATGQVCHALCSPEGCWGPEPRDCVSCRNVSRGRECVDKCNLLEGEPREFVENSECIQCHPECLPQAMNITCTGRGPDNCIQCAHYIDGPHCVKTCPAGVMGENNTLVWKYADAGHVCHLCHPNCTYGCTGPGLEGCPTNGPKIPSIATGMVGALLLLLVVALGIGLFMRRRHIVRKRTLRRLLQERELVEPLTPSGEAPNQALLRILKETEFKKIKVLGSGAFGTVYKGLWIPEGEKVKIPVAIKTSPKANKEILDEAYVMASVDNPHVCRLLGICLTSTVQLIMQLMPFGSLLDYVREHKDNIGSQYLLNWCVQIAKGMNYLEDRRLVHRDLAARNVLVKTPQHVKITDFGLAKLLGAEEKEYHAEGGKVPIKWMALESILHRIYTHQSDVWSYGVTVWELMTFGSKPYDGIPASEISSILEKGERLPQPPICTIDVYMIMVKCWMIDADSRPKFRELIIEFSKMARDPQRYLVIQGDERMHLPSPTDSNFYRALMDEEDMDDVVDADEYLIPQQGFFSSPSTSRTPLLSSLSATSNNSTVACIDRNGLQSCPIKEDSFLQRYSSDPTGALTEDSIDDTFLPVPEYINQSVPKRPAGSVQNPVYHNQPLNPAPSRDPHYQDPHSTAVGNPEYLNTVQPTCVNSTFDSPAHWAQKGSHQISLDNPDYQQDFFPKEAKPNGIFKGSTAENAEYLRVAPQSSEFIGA

Row | Compound | IC50 (EGFR del19/C797S; [1]) | IC50 (EGFR wildtype (WT); [2]) | IC50 (EGFR del19/T790M/C797S; [3]) | IC50 (EGFR L858R/C797S; [4]) | IC50 (EGFR L858R/T790M/C797S; [5]) | IC50 (EGFR del19/C797S; [6]) | IC50 (EGFR wildtype (WT); [7]) | IC50 (EGFR del19/T790M/C797S; [8]) | IC50 (EGFR L858R/C797S; [9]) | IC50 (EGFR L858R/T790M/C797S; [10]) | IC50 (EGFR del19/C797S; [11]) | IC50 (EGFR wildtype (WT); [12]) | IC50 (EGFR del19/T790M/C797S; [13]) | IC50 (EGFR L858R/C797S; [14]) | IC50 (EGFR L858R/T790M/C797S; [15])
1 | C[C@]1(O)CC[C@@H](Nc2cc(Nc3ccnc(-c4cnn(CCF)c4)n3)ncc2-c2ccn(C(F)F)n2)CC1 [Example 145, (1s,4s)-4-((5-(1-(Difluoromethyl)-1H-pyrazol-3-yl)-2-((2-(1-(2-fluoroethyl)-1H-pyrazol-4-yl)pyrimidin-4-yl)amino)pyridin-4-yl)amino)-1-methylcyclohexan-1-ol] | 23 nM | 199 nM | 0.6 nM | 7.2 nM | 0.5 nM | – | – | – | – | – | – | – | – | – | –
2 | Cn1nc(-c2cnc(Nc3ccnc(-c4cnn(S(=O)(=O)C5CC5)c4)n3)cc2N[C@H]2CCC[C@H](CO)C2)cc1C(F)(F)F [Example 260, ((1S,3S)-3-((2-((2-(1-(Cyclopropylsulfonyl)-1H-pyrazol-4-yl)pyrimidin-4-yl)amino)-5-(1-methyl-5-(trifluoromethyl)-1H-pyrazol-3-yl)pyridin-4-yl)amino)cyclohexyl)methanol] | 5 nM | 27.1 nM | 8.6 nM | 2.7 nM | 3.8 nM | 8.7 nM | 5230 nM | 9.8 nM | 59.9 nM | 4.3 nM | – | – | – | – | –
3 | CN(C)C(=O)[C@H]1CC[C@@H](Nc2cc(Nc3ccnc(-c4cnn(S(=O)(=O)C5CC5)c4)n3)ncc2-c2cc(C(F)(F)F)n(C)n2)CC1 [Example 257, (1s,4s)-4-((2-((2-(1-(Cyclopropylsulfonyl)-1H-pyrazol-4-yl)pyrimidin-4-yl)amino)-5-(1-methyl-5-(trifluoromethyl)-1H-pyrazol-3-yl)pyridin-4-yl)amino)-N,N-dimethylcyclohexane-1-carboxamide] | 2.1 nM | 7.5 nM | 4.3 nM | 5.2 nM | 1.1 nM | 6 nM | 294 nM | 3.7 nM | 29.1 nM | 1.6 nM | – | – | – | – | –
4 | C[C@]1(O)CC[C@@H](Nc2cc(Nc3ccnc(-c4cnn(CC(F)F)c4)n3)ncc2-c2ccn(C(F)(F)F)n2)CC1 [Example 340, (1s,4s)-4-((2-((2-(1-(2,2-Difluoroethyl)-1H-pyrazol-4-yl)pyrimidin-4-yl)amino)-5-(1-(trifluoromethyl)-1H-pyrazol-3-yl)pyridin-4-yl)amino)-1-methylcyclohexan-1-ol] | – | – | – | – | – | – | – | – | – | – | 21.4 nM | 173 nM | 0.5 nM | 6.7 nM | 0.3 nM
5 | CS(=O)(=O)n1ccc(-c2nccc(Nc3cc(N[C@H]4CC[C@@](C)(O)CC4)c(-c4ccn(C(F)F)n4)cn3)n2)c1 [Example 108, (1s,4s)-4-((5-(1-(Difluoromethyl)-1H-pyrazol-3-yl)-2-((2-(1-(methylsulfonyl)-1H-pyrrol-3-yl)pyrimidin-4-yl)amino)pyridin-4-yl)amino)-1-methylcyclohexan-1-ol] | 23.7 nM | 57.2 nM | 1.2 nM | 2 nM | 0.5 nM | – | – | – | – | – | – | – | – | – | –
6 | C[C@]1(O)CC[C@@H](Nc2cc(Nc3ccnc(-c4cnn(S(=O)(=O)C5CC5)c4)n3)ncc2-c2cc3n(n2)CCCC3)CC1 [Example 59, (1s,4s)-4-((2-((2-(1-(Cyclopropylsulfonyl)-1H-pyrazol-4-yl)pyrimidin-4-yl)amino)-5-(4,5,6,7-tetrahydropyrazolo[1,5-a]pyridin-2-yl)pyridin-4-yl)amino)-1-methylcyclohexan-1-ol] | 1 nM | – | 0.7 nM | 0.6 nM | 0.3 nM | 1.9 nM | 368 nM | 0.8 nM | – | 0.6 nM | – | – | – | – | –
7 | O=S(=O)(C1CC1)n1cc(-c2nccc(Nc3cc(N[C@H]4CC[C@@H](CO)CC4)c(-c4ccn(C5COC5)n4)cn3)n2)cn1 [Example 282, ((1s,4s)-4-((2-((2-(1-(Cyclopropylsulfonyl)-1H-pyrazol-4-yl)pyrimidin-4-yl)amino)-5-(1-(oxetan-3-yl)-1H-pyrazol-3-yl)pyridin-4-yl)amino)cyclohexyl)methanol] | 0.1 nM | 0.6 nM | 0.3 nM | 0.1 nM | 0.1 nM | 0.5 nM | 370 nM | 0.3 nM | 0.7 nM | 0.3 nM | – | – | – | – | –
8 | O=S(=O)(C1CC1)n1cc(-c2nccc(Nc3cc(N[C@H]4CC[C@@H](NCC(F)F)CC4)c(-c4csc(C(F)(F)F)n4)cn3)n2)cn1 [Example 53, N^2-(2-(1-(Cyclopropylsulfonyl)-1H-pyrazol-4-yl)pyrimidin-4-yl)-N^4-((1s,4s)-4-((2,2-difluoroethyl)amino)cyclohexyl)-5-(2-(trifluoromethyl)thiazol-4-yl)pyridine-2,4-diamine] | 7.7 nM | 105 nM | 8.5 nM | 15 nM | 2.9 nM | 14.2 nM | > 10000 nM | 9.4 nM | 264 nM | 11.3 nM | – | – | – | – | –
9 | CN(C)C[C@H]1CC[C@@H](Nc2cc(Nc3ccnc(-c4cnn(S(=O)(=O)C5CC5)c4)n3)ncc2-c2ccn(C)n2)CC1 [Example 226, N^2-(2-(1-(Cyclopropylsulfonyl)-1H-pyrazol-4-yl)pyrimidin-4-yl)-N^4-((1s,4s)-4-((dimethylamino)methyl)cyclohexyl)-5-(1-methyl-1H-pyrazol-3-yl)pyridine-2,4-diamine] | 0.1 nM | 0.2 nM | 0.1 nM | 0.1 nM | 0.1 nM | 0.2 nM | 96.9 nM | 0.1 nM | – | 0.1 nM | – | – | – | – | –
10 | O=S(=O)(C1CC1)n1cc(-c2cc(Nc3ncc(-c4ccn(C(F)F)n4)c(N[C@H]4CC[C@@H](CO)CC4)n3)ccn2)cn1 [Example 364, ((1s,4s)-4-((2-((2-(1-(Cyclopropylsulfonyl)-1H-pyrazol-4-yl)pyridin-4-yl)amino)-5-(1-(difluoromethyl)-1H-pyrazol-3-yl)pyrimidin-4-yl)amino)cyclohexyl)methanol] | – | – | – | – | – | – | – | – | – | – | 7.9 nM | 55.6 nM | 0.4 nM | 9 nM | 0.8 nM
11 | O=S(=O)(C1CC1)n1cc(-c2nccc(Nc3cc(NCCCn4ccnc4)c(-c4ccn(C(F)F)n4)cn3)n2)cn1 [Example 41, N^4-(3-(1H-Imidazol-1-yl)propyl)-N^2-(2-(1-(cyclopropylsulfonyl)-1H-pyrazol-4-yl)pyrimidin-4-yl)-5-(1-(difluoromethyl)-1H-pyrazol-3-yl)pyridine-2,4-diamine] | – | – | – | – | – | 34.8 nM | > 10000 nM | 2 nM | > 10000 nM | 6.8 nM | – | – | – | – | –
12 | Cn1ccc(-c2cnc(Nc3ccnc(-c4cnn(S(=O)(=O)C5CC5)c4)n3)cc2N[C@H]2CC[C@]3(CCC(=O)N3)CC2)n1 [Example 44, (5s,8s)-8-((2-((2-(1-(Cyclopropylsulfonyl)-1H-pyrazol-4-yl)pyrimidin-4-yl)amino)-5-(1-methyl-1H-pyrazol-3-yl)pyridin-4-yl)amino)-1-azaspiro[4.5]decan-2-one] | 0.2 nM | 1 nM | 0.2 nM | 0.2 nM | 0.1 nM | 0.2 nM | > 10000 nM | 0.2 nM | 0.8 nM | 0.2 nM | – | – | – | – | –
